Measurements taken from patent publication US6682914B2, “Bioactive tetracyclic diterpene compounds and methods of preparation and use thereof” (Universidad del Pais Vasco/Euskal Herriko Unibersitatea, priority 2001, dated 2004).

Tested on: Aspergillus nidulans
Experiment: Conidiation-inducing bioassay modified for Aspergillus (conidiophores per mycelial pellet)
Type: cell-based
Conditions: control at least 28 hours
Experimental: Assays were carried out in shaken flask cultures using 25 mL. […] Determination of conidiation inducing activity was followed by microscopic observation of mycelium samples taken at different times. For these purposes, conidiation time was defined as the time at which 50% of the hyphal tips attained the final stage of conidiation (conidia-bearing tips), according to previously established criteria (Ugalde and Pitt, 1983), namely, the direct microscopic observation of three separate groups of 500 hyphal tips, and the determination of the proportion of hyphal tips in each group which bear conidia.
The bioassay procedure described above was used to assess qualitatively in other filamentous fungi, in particular, those of the genus Aspergillus, the conidiation-inducing activity of the compounds that were extracted, isolated and purified from Penicillium cyclopium in accordance with Example 1. […] Thus, the criteria employed to determine the time of conidiation in these cases was the appearance of at least two conidiophores (the specific phialide bearing structure for this genus) on average per mycellial pellet, measured from a minimum of 10 pellets.

| Compound | time of incubation to positive conidiogenic activity (at least two conidiophores per mycelial pellet) (25-50 ng/mL in culture medium) | time of incubation to positive conidiogenic activity (at least two conidiophores per mycelial pellet) (100 ng/mL in culture medium) |
| --- | --- | --- |
| CC1C(O)CC(=O)C2(C)CCC3C4C(C)(C)CCC4(C)CC132 (stereo not drawn) [conidiogenone, (1R*, 3R*, 7R*, 8S*, 11R*, 14S*, 15R*)-14-Hydroxy-3,6,6,11,15pentamethyl-tetracyclo[9.4.0.0^1,8.0^3,7]-pentadecan-12-one] | 22 h |  |
| CC1C(O)CC(O)C2(C)CCC3C4C(C)(C)CCC4(C)CC132 (stereo not drawn) [conidiogenol, (1R*, 3R*, 7R*, 8S*, 11R*, 12R*, 14S*, 15R*)-3,6,6,11,15-pentamethyl-tetracyclo[9.4.0.0^1,8.0^3,7]-pentadecan-12,14-diol] |  | 22 h |
